Test results taken from the supplement of paper PMC10331698.
± gives the standard deviation of the averaged measurements.

How the values were obtained:
Test in all cases: level (log10 ratio to DMSO vehicle control); higher = higher biomarker level / cell amount than vehicle control
Conditions in all cases: in DMSO
[1] = compound: C=C(C)C(=O)OCC(F)(F)C(F)(F)C(F)(F)C(F)(F)C(F)(F)C(F)(F)C(F)(F)F
Procedure: (§1)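 BioMAP Diversity Plus panel of 12 human primary cell co-culture systems (3C, 4H, LPS, SAg, BT, BF4T, BE3C, CASM3C, HDF3CGF, KF3CT, MyoF, Mphg). Compounds were added 1 h before stimulation and left for 24 h (MyoF 48 h; BT 72 h for soluble read-outs or 6 d for IgG). Biomarkers were read by ELISA, cytotoxicity by SRB, PBMC viability and proliferation by Alamar Blue. Each well value was divided by the mean of 8 DMSO control wells on the same plate and log10 transformed; duplicate blinded samples were tested at 4 concentrations.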

[2] = compound: CC(C)(C)C(=O)CC(=O)C(F)(F)C(F)(F)C(F)(F)F [(Heptafluorobutanoyl)pivaloylmethane]
Procedure: as §1

[3] = compound: O=C(O)C(F)(F)C(F)(F)C(F)(F)C(F)(F)C(F)(F)C(F)(F)C(F)(F)C(F)(F)C(F)(F)C(F)(F)C(F)(F)C(F)(F)C(F)(F)F [Perfluorotetradecanoic acid]
Procedure: as §1

[4] = compound: O=C(O)C(F)(F)C(F)(F)C(F)(F)C(F)(F)C(F)(F)C(F)(F)C(F)(F)C(F)(F)Cl [9-Chloro-perfluorononanoic acid]
Procedure: as §1

[5] = compound: O=C(O)C(F)(F)OC(F)(F)C(F)(F)OC(F)(F)C(F)(F)C(F)(F)C(F)(F)F [Perfluoro-3,6-dioxadecanoic acid]
Procedure: as §1

[6] = compound: O=C(O)CCC(F)(F)C(F)(F)C(F)(F)C(F)(F)C(F)(F)F [2H,2H,3H,3H-Perfluorooctanoic acid]
Procedure: as §1

[7] = compound: O=S(=O)(O)C(F)(F)C(F)(F)C(F)(F)C(F)(F)C(F)(F)C(F)(F)C(F)(F)C(F)(F)F [Perfluorooctanesulfonic acid]
Procedure: as §1

Test System | level (log10) ([1]; 6700 nM) | level (log10) ([1]; 20000 nM) | level (log10) ([2]; 6700 nM) | level (log10) ([2]; 20000 nM) | level (log10) ([2]; 60000 nM) | level (log10) ([3]; 6700 nM) | level (log10) ([3]; 20000 nM) | level (log10) ([4]; 6700 nM) | level (log10) ([4]; 20000 nM) | level (log10) ([5]; 6700 nM) | level (log10) ([5]; 20000 nM) | level (log10) ([5]; 60000 nM) | level (log10) ([6]; 6700 nM) | level (log10) ([6]; 20000 nM) | level (log10) ([6]; 60000 nM) | level (log10) ([7]; 6700 nM) | level (log10) ([7]; 20000 nM) | level (log10) ([7]; 60000 nM)
LPS:IL-1alpha | 0.016 ± 0.048 | 0.044 ± 0.016 | 0.0285 ± 0.00071 | 0.0365 ± 0.0021 | 0.0745 ± 0.026 | -0.031 ± 0.071 | -0.045 ± 0.09 | 0.038 ± 0.017 | 0.025 ± 0.021 | -0.008 ± 0.0085 | -0.0225 ± 0.03 | -0.04 ± 0.013 | 0.0025 ± 0.00071 | 0.029 ± 0.035 | 0.0415 ± 0.00071 | 0.0245 ± 0.043 | 0.023 ± 0.04 | 0.0215 ± 0.0021
BT:sIL-17F | 0.0315 ± 0.0035 | -0.0245 ± 0.063 | -0.069 ± 0.082 | -0.0005 ± 0.036 | -0.119 ± 0.1 | -0.019 ± 0.058 | -0.0085 ± 0.028 | -0.0055 ± 0.074 | 0.011 ± 0.024 | -0.016 ± 0.055 | -0.0335 ± 0.12 | -0.021 ± 0.1 | -0.016 ± 0.058 | -0.0575 ± 0.059 | -0.01 ± 0.064 | -0.064 ± 0.14 | -0.0825 ± 0.059 | -0.009 ± 0.018
3C:HLA-DR | 0.0085 ± 0.011 | -0.0005 ± 0.019 | -0.0205 ± 0.013 | -0.0285 ± 0.005 | -0.092 ± 0.035 | -0.028 ± 0.03 | 0.0025 ± 0.037 | -0.0105 ± 0.0078 | 0.004 ± 0.021 | 0.0345 ± 0.04 | 0.021 ± 0.044 | 0.016 ± 0.071 | -0.0085 ± 0.00071 | -0.019 ± 0.023 | -0.001 ± 0.0071 | 0.0005 ± 0.011 | -0.0095 ± 0.021 | 0.0095 ± 0.023
